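Cells were grown in 96-well plates and exposed to each compound for 48 hours at five concentrations; endpoints were interpolated linearly between bracketing concentrations, or set to the highest concentration if not reached. At the GI50, growth is halved.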 Activity calls are given as the source filed them. No stated cut-off is given here; in the data, active = GI50 up to about 1.1 µM and inactive = higher.
Key:
Experiment in all cases: NCI anticancer screen, dose series, 48 h
786-0 = system: 786-0
A498 = system: A498
A549 = system: A549
ACHN = system: ACHN
CAKI-1 = system: CAKI-1
CCRF-CEM = system: CCRF-CEM
COLO 205 = system: COLO 205
DU-145 = system: DU-145
EKVX = system: EKVX
HCC 2998 = system: HCC 2998
HCT-116 = system: HCT-116
HCT-15 = system: HCT-15
HOP-62 = system: HOP-62
HOP-92 = system: HOP-92
HT-29 = system: HT-29
Hs-578T = system: Hs-578T
IGROV-1 = system: IGROV-1
K562 = system: K562
KM12 = system: KM12
M14 = system: M14
MCF7 = system: MCF7
MDA-MB-231 = system: MDA-MB-231
MDA-MB-435 = system: MDA-MB-435
MDA-N = system: MDA-N
MOLT-4 = system: MOLT-4
Malme-3M = system: Malme-3M
NCI-H23 = system: NCI-H23
NCI-H460 = system: NCI-H460
NCI-H522 = system: NCI-H522
NCI/ADR-RES = system: NCI/ADR-RES
OVCAR-3 = system: OVCAR-3
OVCAR-4 = system: OVCAR-4
OVCAR-5 = system: OVCAR-5
PC-3 = system: PC-3
RPMI-8226 = system: RPMI-8226
RXF 393 = system: RXF 393
SF-295 = system: SF-295
SK-MEL-28 = system: SK-MEL-28
SK-MEL-2 = system: SK-MEL-2
SK-MEL-5 = system: SK-MEL-5
SK-OV-3 = system: SK-OV-3
SNB-19 = system: SNB-19
SR = system: SR
SW-620 = system: SW-620
U-251 = system: U-251
UACC-257 = system: UACC-257
UACC-62 = system: UACC-62
UO-31 = system: UO-31
HL-60 = system: HL-60
LOX IMVI = system: LOX IMVI
NCI-H226 = system: NCI-H226
OVCAR-8 = system: OVCAR-8
SF-268 = system: SF-268
SF-539 = system: SF-539
SN12C = system: SN12C
SNB-75 = system: SNB-75
T47D = system: T47D
TK-10 = system: TK-10

COc1ccc(C(=O)NCCC2CN(S(=O)(=O)C(F)(F)F)c3ccccc32)c(OC)c1 (stereo unspecified)
GI50 (786-0): 53 µM (inactive)
GI50 (A498): > 100 µM (inactive)
GI50 (A549): 52.1 µM (inactive)
GI50 (ACHN): 33.2 µM (inactive)
GI50 (CAKI-1): > 100 µM (inactive)
GI50 (CCRF-CEM): 17.2 µM (inactive)
GI50 (COLO 205): 34.5 µM (inactive)
GI50 (DU-145): > 100 µM (inactive)
GI50 (EKVX): 39 µM (inactive)
GI50 (HCC 2998): 60.4 µM (inactive)
GI50 (HCT-116): 35.8 µM (inactive)
GI50 (HCT-15): 57.4 µM
GI50 (HOP-62): 88.5 µM (inactive)
GI50 (HOP-92): 61.4 µM (inactive)
GI50 (HT-29): 22.7 µM (inactive)
GI50 (Hs-578T): 33.1 µM (inactive)
GI50 (IGROV-1): 61.4 µM (inactive)
GI50 (K562): 28.3 µM (inactive)
GI50 (KM12): 21.3 µM (inactive)
GI50 (M14): 35.1 µM (inactive)
GI50 (MCF7): 52.1 µM (inactive)
GI50 (MDA-MB-231): > 100 µM (inactive)
GI50 (MDA-MB-435): 30.1 µM (inactive)
GI50 (MDA-N): 33.2 µM (inactive)
GI50 (MOLT-4): 29.1 µM (inactive)
GI50 (Malme-3M): 7.06 µM (inactive)
GI50 (NCI-H23): 32.8 µM (inactive)
GI50 (NCI-H460): 33.6 µM (inactive)
GI50 (NCI-H522): 19.3 µM (inactive)
GI50 (NCI/ADR-RES): 23.1 µM (inactive)
GI50 (OVCAR-3): 51.4 µM (inactive)
GI50 (OVCAR-4): 69.3 µM (inactive)
GI50 (OVCAR-5): > 100 µM (inactive)
GI50 (PC-3): 36 µM (inactive)
GI50 (RPMI-8226): 26.8 µM (inactive)
GI50 (RXF 393): > 100 µM (inactive)
GI50 (SF-295): 68.9 µM (inactive)
GI50 (SK-MEL-28): 51.2 µM (inactive)
GI50 (SK-MEL-2): 53.6 µM (inactive)
GI50 (SK-MEL-5): 15.2 µM (inactive)
GI50 (SK-OV-3): > 100 µM (inactive)
GI50 (SNB-19): 54.5 µM (inactive)
GI50 (SR): > 100 µM (inactive)
GI50 (SW-620): 35.8 µM (inactive)
GI50 (U-251): 30.3 µM (inactive)
GI50 (UACC-257): 40.8 µM (inactive)
GI50 (UACC-62): 26.9 µM (inactive)
GI50 (UO-31): 43 µM (inactive)

Cc1ccccc1C(=O)NC(O)(C(F)(F)F)C(F)(F)F
GI50 (786-0): > 100 µM (inactive)
GI50 (A498): > 100 µM (inactive)
GI50 (A549): 82.4 µM (inactive)
GI50 (ACHN): > 100 µM (inactive)
GI50 (CAKI-1): > 100 µM (inactive)
GI50 (CCRF-CEM): 58.3 µM (inactive)
GI50 (COLO 205): > 100 µM (inactive)
GI50 (DU-145): > 100 µM (inactive)
GI50 (EKVX): > 100 µM (inactive)
GI50 (HCC 2998): > 100 µM (inactive)
GI50 (HCT-116): > 100 µM (inactive)
GI50 (HCT-15): > 100 µM
GI50 (HL-60): 54.7 µM (inactive)
GI50 (HOP-62): > 100 µM (inactive)
GI50 (HOP-92): > 100 µM (inactive)
GI50 (HT-29): 91.2 µM (inactive)
GI50 (Hs-578T): 22.5 µM (inactive)
GI50 (IGROV-1): > 100 µM (inactive)
GI50 (K562): 57.9 µM (inactive)
GI50 (KM12): 42.5 µM (inactive)
GI50 (LOX IMVI): > 100 µM (inactive)
GI50 (M14): > 100 µM (inactive)
GI50 (MCF7): > 100 µM (inactive)
GI50 (MDA-MB-231): > 100 µM (inactive)
GI50 (MDA-MB-435): > 100 µM (inactive)
GI50 (MDA-N): > 100 µM (inactive)
GI50 (MOLT-4): 35.9 µM (inactive)
GI50 (Malme-3M): 28.2 µM (inactive)
GI50 (NCI-H226): > 100 µM (inactive)
GI50 (NCI-H23): 78.2 µM (inactive)
GI50 (NCI-H460): 84.9 µM (inactive)
GI50 (NCI-H522): 47 µM (inactive)
GI50 (NCI/ADR-RES): 70 µM (inactive)
GI50 (OVCAR-3): 35.1 µM (inactive)
GI50 (OVCAR-4): 51.8 µM (inactive)
GI50 (OVCAR-5): > 100 µM (inactive)
GI50 (OVCAR-8): > 100 µM (inactive)
GI50 (PC-3): 25.5 µM (inactive)
GI50 (RPMI-8226): 49.1 µM (inactive)
GI50 (RXF 393): > 100 µM (inactive)
GI50 (SF-268): > 100 µM (inactive)
GI50 (SF-295): > 100 µM (inactive)
GI50 (SF-539): > 100 µM (inactive)
GI50 (SK-MEL-28): > 100 µM (inactive)
GI50 (SK-MEL-2): 56.1 µM (inactive)
GI50 (SK-MEL-5): 94 µM (inactive)
GI50 (SK-OV-3): > 100 µM (inactive)
GI50 (SN12C): > 100 µM (inactive)
GI50 (SNB-19): > 100 µM (inactive)
GI50 (SNB-75): 0.0302 µM (active)
GI50 (SW-620): > 100 µM (inactive)
GI50 (T47D): 65.2 µM (inactive)
GI50 (TK-10): > 100 µM (inactive)
GI50 (U-251): > 100 µM (inactive)
GI50 (UACC-257): 61.9 µM (inactive)
GI50 (UO-31): 34.8 µM (inactive)

COc1cc(CC(C)N[C@@H](C)c2ccccc2)cc(OC)c1 (stereo partly specified)
GI50 (CAKI-1): > 100 µM (inactive)
GI50 (Hs-578T): 72.1 µM (inactive)
GI50 (KM12): > 100 µM (inactive)
GI50 (NCI-H522): > 100 µM (inactive)
GI50 (RXF 393): > 100 µM (inactive)
GI50 (SF-539): > 100 µM (inactive)
GI50 (SK-MEL-2): > 100 µM (inactive)

— ChEMBL document CHEMBL1201862, “PubChem BioAssay data set” (2004)
